The source of these data is patent publication US20230203004A1, “RSV INHIBITING 3-SUBSTITUTED QUINOLINE AND CINNOLINE DERIVATIVES” (Janssen Sciences Ireland Unlimited Company, priority 2020, published 2023).

Where two headings read alike, the source gives them in different places.

A word on the EC50: it is the concentration that produces a half-maximal response. As usually defined, the CC50 is the concentration at which the toxic effect on the cells reaches its halfway point. The low end stands for greater toxicity to the cells, the high end for lower toxicity to the cells.

Series [1] deals with rgRSV224 virus. Description: Antiviral activity: rgRSV224 (GFP) replication in HeLa cells. The class given is cell-based, respiratory syncytial virus (RSV). In short, it runs like this: (§1)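 Over 3 days at 37 °C, compound titrations (4-fold steps, nine dilutions) were tested on HeLa cells infected with rgRSV224 (MOI = 1), inhibition of GFP signal giving EC50. In parallel plates, ATP content of HeLa cells after 3-day exposure defined CC50.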

The nature of series [2]: Cytotoxicity in HeLa cells (ATP content, ATPlite kit). Format: cell-based. To be noted: human. The method, boiled down: as §1
The mark [3] stands for this setting: human respiratory syncytial virus, HeLa, 72 h, read-out: RSV HELA EC50, HeLa cells, rgRSV224 MOI = 1, GFP expression three days post-virus exposure, averaged data of several repeat experiments.
The mark [4] stands for this setting: read-out: RSV HELA EC50, HeLa cells, rgRSV224 MOI = 1, GFP expression three days post-virus exposure, averaged data of several repeat experiments.

In the case of `COc1cc(C(=O)NC[C@](C)(O)c2cc(C(C)(C)O)c(Cl)c(-c3ccc(F)cc3)n2)cc2cc(C)nnc12` [compound 229, (-)-N-{2-[5-Chloro-6-(4-Fluorophenyl)-4-(2-Hydroxypropan-2-yl)Pyridin-2-yl]-2-Hydroxypropyl}-8-Methoxy-3-Methylcinnoline-6-Carboxamide], in series [1] (setting [3]), the EC50 is 0.00081 µM. The molecule further returned a CC50 at 3 days in series [2] (TOX HELA CC50) of 44 µM.

On to `COc1cc(C(=O)NC[C@](O)(c2cc(C(C)(C)O)c(F)c(-c3ccc(F)cc3)n2)C2CC2)cc2cc(C(F)F)nnc12` [compound 269], for which the EC50 in series [1] (setting [3]) came to 0.0012 µM. The same molecule came in with a CC50 at 3 days in series [2] (TOX HELA CC50) of 20 µM.

With `COc1cc(C(=O)NC[C@](O)(c2cc(C(C)(C)O)c(Cl)c(-c3ccc(F)cc3)n2)C(F)(F)F)cc2cc(C(F)(F)F)cnc12` [compound 328, (-)(Trifluoromethyl)-8-Methoxy-N-(3,3,3-Trifluoro-2-(5-Chloro-6-(4-Fluorophenyl)-4-(2-Hydroxypropan-2-yl)Pyridin-2-yl)-2-Hydroxypropyl)Quinoline-6-Carboxamide], the EC50 in series [1] (setting [3]) was determined as 0.04 µM. Further, it took 14 µM to reach half-maximal cytotoxicity in series [2] (TOX HELA CC50) (CC50 at 3 days).

Turning to `[2H]C([2H])(NC(=O)c1cc(OC)c2nnc(C)cc2c1)[C@](O)(c1cc(C(C)(C)O)c(F)c(-c2ccc(F)cc2)n1)C1CC1` [compound 316], the EC50 in series [1] (setting [3]) stood at 0.00034 µM. The molecule also displayed a cytotoxic concentration (CC50) at 3 days in series [2] (TOX HELA CC50) of 33 µM.

For `COc1cc(C(=O)NCC(O)(c2cc(C(C)(C)O)c(F)c(-c3ccc(F)cc3)n2)C(F)F)cc2cc(C)cnc12` (single isomer, unassigned; (+)) [compound 203, (+)-N-{3,3-Difluoro-2-[5-Fluoro-6-(4-Fluorophenyl)-4-(2-Hydroxypropan-2-yl)Pyridin-2-yl]-2-Hydroxypropyl}-8-Methoxy-3-Methylquinoline-6-Carboxamide], the EC50 in series [1] (setting [4]) is 0.48 µM. For the same molecule, the CC50 at 3 days in series [2] (TOX HELA CC50) was found to be 43 µM.

Regarding `COc1cc(C(=O)NC[C@](O)(c2cc(C(C)(C)O)c(Cl)c(-c3ccc(F)cc3)n2)C(F)(F)F)cc2cc(C(F)F)nnc12` [compound 267, (-)-N-{2-[5-Chloro-6-(4-Fluorophenyl)-4-(2-Hydroxypropan-2-yl)Pyridin-2-yl]-3,3,3-Trifluoro-2-Hydroxypropyl}-3-(Difluoromethyl)-8-Methoxycinnoline-6-Carboxamide], in series [1] (setting [3]), the EC50 came to 0.003 µM. This molecule gave a CC50 at 3 days in series [2] (TOX HELA CC50) of 14 µM.

As to `COc1cc(C(=O)NC[C@](O)(c2cc(C(C)(C)O)c(Cl)c(-c3ccc(F)cc3)n2)C(F)(F)F)cc2cc(C)cnc12` [compound 200, (-)-N-{2-[5-Chloro-6-(4-Fluorophenyl)-4-(2-Hydroxypropan-2-yl)Pyridin-2-yl]-3,3,3-Trifluoro-2-Hydroxypropyl}-8-Methoxy-3-Methylquinoline-6-Carboxamide], the EC50 in series [1] (setting [3]) worked out at 0.0017 µM. In addition, in series [2] (TOX HELA CC50), half-maximal cytotoxicity (CC50 at 3 days) was put at 22 µM.

For the molecule `COc1cc(C(=O)NC[C@](O)(c2cc(C(C)(C)O)c(Cl)c(-c3ccc(F)cc3)n2)C(F)(F)F)cc2cc(C)c(F)nc12` [compound 210, (-)-N-{2-[5-Chloro-6-(4-Fluorophenyl)-4-(2-Hydroxypropan-2-yl)Pyridin-2-yl]-3,3,3-Trifluoro-2-Hydroxypropyl}-2-Fluoro-8-Methoxy-3-Methylquinoline-6-Carboxamide], the EC50 in series [1] (setting [3]) amounted to 0.0029 µM. The same molecule showed a CC50 at 3 days in series [2] (TOX HELA CC50) of 23 µM.

As to `COc1cc(C(=O)NC[C@](O)(c2cc(C(C)(C)O)c(F)c(-c3ccc(F)cc3)n2)C2CC2)cc2cc(C)cnc12` [compound 206], the EC50 in series [1] (setting [3]) was 0.00046 µM. The same molecule displayed a CC50 at 3 days in series [2] (TOX HELA CC50) of 15 µM.

`COc1cc(C(=O)NC[C@](O)(c2cc(C(C)(C)O)c(F)c(-c3ccc(F)cc3)n2)C2C[C@H]2F)cc2cc(C)nnc12` (single isomer, unassigned) [compound 300, N-((*S)(5-Fluoro-6-(4-Fluorophenyl)-4-(2-Hydroxypropanyl)Pyridinyl)((1*S,2*R)Fluorocyclopropyl)Hydroxyethyl)-8-Methoxy-3-Methylcinnoline-6-Carboxamide]: the EC50 in series [1] (setting [3]) turned out to be 0.0007 µM. Moreover, in series [2] (TOX HELA CC50), the CC50 at 3 days was determined as 27 µM.

`COc1cc(C(=O)NCC(O)(c2cc(C(C)(C)O)c(F)c(-c3ccc(F)cc3)n2)C(F)F)cc2cc(C)c(F)nc12` (single isomer, unassigned; (+)) [compound 213, (+)-N-{3,3-Difluoro-2-[5-Fluoro-6-(4-Fluorophenyl)-4-(2-Hydroxypropan-2-yl)Pyridin-2-yl]-2-Hydroxypropyl}-2-Fluoro-8-Methoxy-3-Methylquinoline-6-Carboxamide]: the EC50 in series [1] (setting [4]) is 0.52 µM. This molecule also came in with a CC50 at 3 days in series [2] (TOX HELA CC50) of 31 µM.

For the molecule `Cc1cc2cc(C(=O)NC[C@](O)(c3cc(C(C)(C)O)c(F)c(-c4ccc(F)cc4)n3)C3CC3)cc(OC3CC3)c2nn1` [compound 265, (-)-N-{2-Cyclopropyl-2-[5-Fluoro-6-(4-Fluorophenyl)-4-(2-Hydroxypropan-2-yl)Pyridin-2-yl]-2-Hydroxyethyl}-8-(Cyclopropyloxy)-3-Methylcinnoline-6-Carboxamide], the EC50 in series [1] (setting [3]) is 0.00069 µM. The same molecule had a CC50 at 3 days in series [2] (TOX HELA CC50) of 39 µM.

As to `COc1cc(C(=O)NC[C@](O)(c2cc(C(C)(C)O)c(F)c(-c3ccc(F)cc3)n2)C(F)(F)F)cc2cc(C(F)F)nnc12` [compound 266, (-)(Difluoromethyl)-8-Methoxy-N-{3,3,3-Trifluoro-2-[5-Fluoro-6-(4-Fluorophenyl)-4-(2-Hydroxypropan-2-yl)Pyridin-2-yl]-2-Hydroxypropyl}Cinnoline-6-Carboxamide], in series [1] (setting [3]), the concentration for a half-maximal effect (EC50) came out at 0.0035 µM. The CC50 at 3 days in series [2] (TOX HELA CC50) stood at 25 µM.

Take `Cc1cnc2c(OC3CC3)cc(C(=O)NC[C@](O)(c3cc(C(C)(C)O)c(F)c(-c4ccc(F)c(F)c4)n3)C3CC3)cc2c1` [compound 225, (-)-N-{2-Cyclopropyl-2-[6-(3,4-Difluorophenyl)-5-Fluoro-4-(2-Hydroxypropan-2-yl)Pyridin-2-yl]-2-Hydroxyethyl}-8-(Cyclopropyloxy)-3-Methylquinoline-6-Carboxamide]: the EC50 in series [1] (setting [3]) was 0.00059 µM. The molecule further had a CC50 at 3 days in series [2] (TOX HELA CC50) of 15 µM.

Regarding `COc1cc(C(=O)NC[C@](O)(c2cc(C(C)(C)O)c(F)c(-c3ccc(F)c(F)c3)n2)C2CC2)cc2cc(C)c(F)nc12` [compound 218, (-)-N-{2-Cyclopropyl-2-[6-(3,4-Difluorophenyl)-5-Fluoro-4-(2-Hydroxypropan-2-yl)Pyridin-2-yl]-2-Hydroxyethyl}-2-Fluoro-8-Methoxy-3-Methylquinoline-6-Carboxamide], the EC50 in series [1] (setting [3]) came out at 0.0012 µM. Moreover, the half-maximal cytotoxic concentration (CC50) at 3 days in series [2] (TOX HELA CC50) was 16 µM.

In the case of `COc1cc(C(=O)NC[C@@](O)(c2nc(-c3ccc(F)cc3)c(F)c(C(C)(C)NC(C)=O)c2F)C(F)(F)F)cc2cc(C)nnc12` [compound 242, (+)-N-{2-[4-(2-Acetamidopropan-2-yl)-3,5-Difluoro-6-(4-Fluorophenyl)Pyridin-2-yl]-3,3,3-Trifluoro-2-Hydroxypropyl}-8-Methoxy-3-Methylcinnoline-6-Carboxamide], in series [1] (setting [3]), the EC50 was 0.17 µM. Further, the CC50 at 3 days in series [2] (TOX HELA CC50) came to 48 µM.

As for `COc1cc(C(=O)NC[C@](O)(c2cc(C(C)(C)O)c(Cl)c(-c3ccc(F)cc3)n2)C2CC2)cc2cc(C(F)(F)F)cnc12` [compound 331], in series [1] (setting [3]), the EC50 is 0.0038 µM. The molecule also came in with a CC50 at 3 days in series [2] (TOX HELA CC50) of 14 µM.

In the case of `COc1cc(C(=O)NC[C@](O)(c2cc(C(C)(C)O)c(Cl)c(-c3ccc(F)cc3)n2)C(F)(F)F)cc2cc(C(F)(F)F)nnc12` [compound 277], in series [1] (setting [3]), the EC50 turned out to be 0.016 µM. In series [2] (TOX HELA CC50), this molecule came in with a CC50 at 3 days of 15 µM.

For the molecule `COc1cc(C(=O)NC[C@](O)(c2cc(C(C)(C)O)c(Cl)c(-c3ccc(F)cc3)n2)C2CC2)cc2cc(C)nnc12` [compound 251, N-{(-)[5-Chloro-6-(4-Fluorophenyl)-4-(2-Hydroxypropanyl)Pyridinyl]CyclopropylHydroxyethyl}-8-Methoxy-3-Methylcinnoline-6-Carboxamide], in series [1] (setting [3]), the EC50 worked out at 0.00053 µM. In addition, the CC50 at 3 days in series [2] (TOX HELA CC50) worked out at 28 µM.

For the molecule `COc1cc(C(=O)NC[C@](O)(c2nc(-c3ccc(F)cc3)c(Cl)c(C(C)(C)O)c2F)C(F)(F)F)cc2cc(C)nnc12` [compound 247, (-)-N-{2-[5-Chloro-3-Fluoro-6-(4-Fluorophenyl)-4-(2-Hydroxypropan-2-yl)Pyridin-2-yl]-3,3,3-Trifluoro-2-Hydroxypropyl}-8-Methoxy-3-Methylcinnoline-6-Carboxamide], the EC50 in series [1] (setting [3]) amounted to 0.0019 µM. In addition, the CC50 at 3 days in series [2] (TOX HELA CC50) is 51 µM.

Regarding `COc1cc(C(=O)NC[C@](O)(c2cc(C(C)(C)O)c(F)c(-c3ccc(F)c(F)c3)n2)C2CC2)cc2cc(C)cnc12` [compound 209, (-)-N-{2-Cyclopropyl-2-[6-(3,4-Difluorophenyl)-5-Fluoro-4-(2-Hydroxypropan-2-yl)Pyridin-2-yl]-2-Hydroxyethyl}-8-Methoxy-3-Methylquinoline-6-Carboxamide], the EC50 in series [1] (setting [3]) stood at 0.00041 µM. Further, in series [2] (TOX HELA CC50), the CC50 at 3 days amounted to 25 µM.

In turn, `COc1cc(C(=O)NCC(O)(c2cc(C(C)(C)N)c(F)c(-c3ccc(F)c(Cl)c3)n2)C(F)(F)F)cc2cccnc12` (stereo not drawn) [reference compound] had an EC50 in series [1] (human respiratory syncytial virus, HeLa, comparison table 5.3, antiviral RSV assay of Example 5.1) of 0.053 µM. The CC50 at 3 days in series [2] (CC50) was found to be 13 µM.

On to `COc1cc(C(=O)NCC(O)(c2cc(C(C)(C)O)c(F)c(-c3cccc(F)c3)n2)C2CC2)cc2cc(C)nnc12` (single isomer, unassigned; (-)) [compound 255, (-)-N-{2-Cyclopropyl-2-[5-Fluoro-6-(3-Fluorophenyl)-4-(2-Hydroxypropan-2-yl)Pyridin-2-yl]-2-Hydroxyethyl}-8-Methoxy-3-Methylcinnoline-6-Carboxamide], for which the EC50 in series [1] (setting [3]) came to 0.00081 µM. The same molecule had a CC50 at 3 days in series [2] (TOX HELA CC50) of 44 µM.

As for `COc1cc(C(=O)NC[C@](O)(c2cc(C(C)(C)O)cc(-c3ccc(F)cc3)n2)C(C)(C)F)cc2cc(C)nnc12` [compound 306], in series [1] (setting [3]), the EC50 was 0.001 µM. In addition, the midpoint of cytotoxicity in series [2] (TOX HELA CC50), the CC50 at 3 days, lay at 50 µM.
